Reference: US11208422B2, “Substituted bridged diazepane derivatives and use thereof as TASK-1 and TASK-3 inhibitors” (Bayer Pharma Aktiengesellschaft, priority 2017, dated 2021)

Columns and labels:
[1] = biological target: recombinant TASK-1 (Homo sapiens (Human), UniProt O14649); test: Inhibition of recombinant TASK-1 in stably transfected CHO cells (KCl-induced depolarization, voltage-sensitive dye, FLIPR); assay type: cell-based; conditions: depolarization induced by 40 mM potassium chloride, some mean values from multiple determinations
Chain of recombinant TASK-1 (O14649 whole entry): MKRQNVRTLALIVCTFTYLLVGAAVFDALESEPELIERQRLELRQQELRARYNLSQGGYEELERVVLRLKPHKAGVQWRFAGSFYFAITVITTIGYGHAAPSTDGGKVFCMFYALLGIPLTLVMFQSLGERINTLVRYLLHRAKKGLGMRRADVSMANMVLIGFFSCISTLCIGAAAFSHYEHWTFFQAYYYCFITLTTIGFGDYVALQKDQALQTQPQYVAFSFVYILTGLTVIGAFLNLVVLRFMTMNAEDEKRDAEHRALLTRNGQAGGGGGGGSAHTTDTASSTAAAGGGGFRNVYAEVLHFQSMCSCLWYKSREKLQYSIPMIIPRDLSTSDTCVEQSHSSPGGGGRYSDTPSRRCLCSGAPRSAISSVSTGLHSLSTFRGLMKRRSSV
Method: (§1) The compounds of the invention were tested here with administration of 40 mM of potassium chloride in the presence of a voltage-sensitive dye using the method described in detail in the following references [Whiteaker et al., Validation of FLIPR membrane potential dye for high-throughput screening of potassium channel modulators, J. Biomol. Screen. 6 (5), 305-312 (2001); Molecular Devices FLIPR Application Note: Measuring membrane potential using the FLIPR® membrane potential assay kit on Fluorometric Imaging Plate Reader (FLIPR®) systems, http://www.moleculardevices.com/reagents-supplies/assay-kits/ion-channels/flipr-membrane-potential-assay-kits]. The activity of the test substances was determined as their ability to inhibit a depolarization induced in the recombinant cells by 40 mM potassium chloride. The concentration which can block half of this depolarization is referred to as IC50.

[2] = biological target: recombinant TASK-3 (Homo sapiens (Human), UniProt Q9NPC2); test: Inhibition of recombinant TASK-3 in stably transfected CHO cells (KCl-induced depolarization, voltage-sensitive dye, FLIPR); assay type: cell-based; conditions: depolarization induced by 40 mM potassium chloride, some mean values from multiple determinations
Chain of recombinant TASK-3 (Q9NPC2 whole entry): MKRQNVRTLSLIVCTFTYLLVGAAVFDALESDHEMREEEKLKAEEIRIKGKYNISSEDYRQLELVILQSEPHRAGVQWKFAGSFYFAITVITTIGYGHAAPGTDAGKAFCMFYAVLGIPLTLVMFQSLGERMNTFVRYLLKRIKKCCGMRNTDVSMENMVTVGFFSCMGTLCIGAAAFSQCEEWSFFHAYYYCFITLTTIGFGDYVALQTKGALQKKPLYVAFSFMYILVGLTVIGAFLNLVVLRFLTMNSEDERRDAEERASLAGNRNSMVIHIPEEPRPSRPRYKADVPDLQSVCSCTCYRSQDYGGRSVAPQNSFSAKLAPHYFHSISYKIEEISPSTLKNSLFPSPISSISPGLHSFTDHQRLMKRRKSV
Method: as §1

| SMILES | IC50 [1] [µM] | IC50 [2] [µM] |
| --- | --- | --- |
| COc1cccc(C(=O)N2CCC3CCC2CN3Cc2c(-c3ccc(C(C)C)cc3)nc3ncccn23)n1 (stereo not drawn) [Example 48] | 12 | 0.43 |
| COc1ccc(Cl)c(C(=O)N2CCC3CCC2CN3Cc2c(-c3ccc(Cl)cc3)nc3ncccn23)n1 (stereo not drawn) [Example 34] | 4.1 | 0.2 |
| COc1cccc(C(=O)N2CCC3CCC2CN3Cc2c(-c3ccc(Cl)cc3)nc3ncccn23)n1 (stereo not drawn) [Example 32] | 0.13 | 0.0041 |
| COc1cccc(C(=O)N2CCC3CCC2CN3Cc2c(-c3ccc(Cl)cc3)nc3ccccn23)n1 (stereo not drawn) [Example 26] | 0.83 | 0.0069 |
| COc1ccc(Cl)c(C(=O)N2CCC3CCC2CN3Cc2c(-c3ccc(Cl)cn3)nc3ccccn23)n1 (stereo not drawn) [Example 20] | 3.35 | 0.197 |
| COc1ccc(F)c(C(=O)N2CCC3CCC2CN3Cc2c(-c3ccc(Cl)cn3)nc3ccccn23)n1 (stereo not drawn) [Example 19] | 13.5 | 0.58 |
| COc1cccc(C(=O)N2C3CCC2CN(Cc2c(-c4ccc(Cl)cc4)nc4ncccn24)CC3)n1 (single isomer, unassigned) [Example 86, [3-{[2-(4-chlorophenyl)imidazo[1,2-a]pyrimidin-3-yl]methyl}-3,9-diazabicyclo[4.2.1]non-9-yl](6-methoxypyridin-2-yl)methanone] | 0.34 | 0.028 |
| COc1cccc(C(=O)N2CC3CCC2CN(Cc2c(-c4ccc(Cl)cc4)nc4ccccn24)C3)n1 (single isomer, unassigned) [Example 95, [3-{[2-(4-chlorophenyl)imidazo[1,2-a]pyridin-3-yl]methyl}-3,6-diazabicyclo[3.2.2]non-6-yl](6-methoxypyridin-2-yl)methanone] | 4.9 | 0.71 |
| COc1ccc(Cl)c(C(=O)N2CCC3CCC2CN3Cc2c(-c3ccc(C(C)C)cc3)nc3ncccn23)n1 (stereo not drawn) [Example 50] | 2.5 | 0.44 |
| O=C(c1cccc(OC(F)(F)F)n1)N1CCC2CCC1CN2Cc1c(-c2ccc(Cl)cc2)nc2ncccn12 (stereo not drawn) [Example 66] | 0.18 | 0.019 |
| COc1ccc(Cl)c(C(=O)N2CCC3CCC(C2)N3Cc2c(-c3ccc(C(C)C)cc3)nc3ncccn23)n1 (stereo not drawn) [Example 54] | 0.78 | 0.29 |
| COc1ccc(F)c(C(=O)N2CCC3CCC(C2)N3Cc2c(-c3ccc(C(C)C)cc3)nc3ncccn23)n1 (stereo not drawn) [Example 58] | 2.9 | 0.92 |
| COc1cccc(C(=O)N2C3CCC2CN(Cc2c(-c4ccc(Cl)cc4)nc4ccccn24)CC3)n1 (single isomer, unassigned) [Example 90, [3-{[2-(4-Chlorophenyl)imidazo[1,2-a]pyridin-3-yl]methyl}-3,9-diazabicyclo[4.2.1]non-9-yl](6-methoxypyridin-2-yl)methanone] | 0.043 | 0.0028 |
| O=C(c1cccc(OC(F)F)n1)N1CCC2CCC1CN2Cc1c(-c2ccc(Cl)cc2)nc2ncccn12 (stereo not drawn) [Example 67] | 3.4 | 0.37 |
| COc1ccc(F)c(C(=O)N2CCC3CCC(C2)N3Cc2c(-c3ccc(C(C)C)cc3)nc3ncccn23)n1 (stereo not drawn) [Example 53] | 1.3 | 0.38 |
| COc1cccc(C(=O)N2CCC3CCC2CN3Cc2c(-c3ccc(C(C)C)cc3)nc3ncccn23)n1 (stereo not drawn) [Example 41] | 2.2 | 0.16 |
| CC(C)c1ccc(-c2nc3ncccn3c2CN2C3CCC2CN(C(=O)C2CCCC2)CC3)cc1 (stereo not drawn) [Example 62] | 8.4 | 1 |
| COc1cccc(C(=O)N2C3CCN(Cc4c(-c5ccc(Cl)cc5)nc5ccccn45)CC2COC3)n1 (racemic) [Example 72, [3-{[2-(4-chlorophenyl)imidazo[1,2-a]pyridin-3-yl]methyl}-8-oxa-3,10-diazabicyclo[4.3.1]dec-10-yl](6-methoxypyridin-2-yl)methanone] | 0.12 | 0.0051 |
| COc1ccc(F)c(C(=O)N2C3CCC2CN(Cc2c(-c4ccc(Cl)cn4)nc4ccccn24)CC3)n1 (single isomer, unassigned) [Example 16, [3-{[2-(5-Chloropyridin-2-yl)imidazo[1,2-a]pyridin-3-yl]methyl}-3,9-diazabicyclo[4.2.1]non-9-yl](3-fluoro-6-methoxypyridin-2-yl)methanone] | 1.7 | 0.065 |
| COc1ccc(F)c(C(=O)N2C3CCC2CN(Cc2c(-c4ccc(C(C)C)cc4)nc4ncccn24)CC3)n1 (stereo not drawn) [Example 103] | 1.4 | 0.2 |
| O=C(c1ccccc1F)N1CCC2CCC1CN2Cc1c(-c2ccc(Cl)cc2)nc2ncccn12 (stereo not drawn) [Example 25] | 1.1 | 0.011 |

| SMILES | IC50 [1] [µM] | IC50 [2] [µM] |
| --- | --- | --- |
| COc1ccc(F)c(C(=O)N2CCC3CCC2CN3Cc2c(-c3ccc(Cl)cc3)nc3ncccn23)n1 (single isomer, unassigned) [Example 17, [6-{[2-(4-Chlorophenyl)imidazo[1,2-a]pyrimidin-3-yl]methyl}-2,6-diazabicyclo[3.2.2]non-2-yl](3-fluoro-6-methoxypyridin-2-yl)methanone] | 3.3 | 0.015 |
| CC(C)c1ccc(-c2nc3ncccn3c2CN2CC3CCC2CCN3C(=O)c2ccccc2F)cc1 (stereo not drawn) [Example 47] | 3.1 | 0.18 |
| O=C(c1ccccc1F)N1CCC2CCC1CN2Cc1c(-c2ccc(Cl)cc2)nc2ncccn12 (stereo not drawn) [Example 22] | 27 | 0.37 |
| CC(C)c1ccc(-c2nc3ncccn3c2CN2C3CCC2CN(C(=O)c2ccccc2F)CC3)cc1 (stereo not drawn) [Example 63] | 8.4 | 0.8 |
| Nc1nonc1C(=O)N1CCC2CCC1CN2Cc1c(-c2ccc(Cl)cc2)nc2ccccn12 (stereo not drawn) [Example 40] | 3.3 | 0.029 |
| O=C(c1cccc(OC(F)F)n1)N1CCC2CCC1CN2Cc1c(-c2ccc(Cl)cc2)nc2ncccn12 (stereo not drawn) [Example 68] | 0.23 | 0.031 |
| COc1ccc(Cl)c(C(=O)N2CCC3CCC2CN3Cc2c(-c3ccc(C(C)C)cc3)nc3ncccn23)n1 (stereo not drawn) [Example 43] | 2.5 | 0.25 |
| COc1cccc(C(=O)N2C3CCC2CN(Cc2c(-c4ccc(C(C)C)cc4)nc4ncccn24)CC3)n1 (stereo not drawn) [Example 104] | 0.6 | 0.031 |
| O=C(c1ccccc1F)N1C2CCN(Cc3c(-c4ccc(Cl)cc4)nc4ccccn34)CC1COC2 (racemic) [Example 71, (3-{[2-(4-chlorophenyl)imidazo[1,2-a]pyridin-3-yl]methyl}-8-oxa-3,10-diazabicyclo[4.3.1]dec-10-yl](2-fluorophenyl)methanone] | 0.74 | 0.031 |
| COc1cccc(C(=O)N2CCC3CCC(C2)N3Cc2c(-c3ccc(C(C)C)cc3)nc3ncccn23)n1 (stereo not drawn) [Example 55] | 4 | 1 |
| Nc1nonc1C(=O)N1C2CCN(Cc3c(-c4ccc(Cl)cc4)nc4ncccn34)CC1COC2 (racemic) [Example 77, (4-amino-1,2,5-oxadiazo1-3-yl)[3-{[2-(4-chlorophenyl)imidazo[1,2-a]pyrimidin-3-yl]methyl}-8-oxa-3,10-diazabicyclo[4.3.1]dec-10-yl]methanone] | 3.3 | 0.27 |
| O=C(c1ccccc1F)N1C2CCN(Cc3c(-c4ccc(Cl)cc4)nc4ncccn34)CC1COC2 (racemic) [Example 74, [3-{[2-(4-chlorophenyl)imidazo[1,2-a]pyrimidin-3-yl]methyl}-8-oxa-3,10-diazabicyclo[4.3.1]dec-10-yl](2-fluorophenyl)methanone] | 5 | 0.2 |
| COc1ccc(F)c(C(=O)N2CCC3CCC2CN3Cc2c(-c3ccc(Cl)cc3)nc3ccccn23)n1 (stereo not drawn) [Example 38] | 0.25 | 0.004 |
| O=C(c1ccccc1F)N1C2CCC1CN(Cc1c(-c3ccc(Cl)cc3)nc3ncccn13)CC2 (single isomer, unassigned) [Example 80] | 4.5 | 0.093 |
| COc1cccc(C(=O)N2CCC3CCC2CN3Cc2c(-c3ccc(Cl)cn3)nc3ccccn23)n1 (stereo not drawn) [Example 18] | 1.6 | 0.167 |
| COc1ccc(F)c(C(=O)N2C3CCC2CN(Cc2c(-c4ccc(Cl)cc4)nc4ncccn24)CC3)n1 (single isomer, unassigned) [Example 83, [3-{[2-(4-chlorophenyl)imidazo[1,2-a]pyrimidin-3-yl]methyl}-3,9-diazabicyclo[4.2.1]non-9-yl](3-fluoro-6-methoxypyridin-2-yl)methanone] | 0.41 | 0.017 |
| COc1cccc(C(=O)N2C3CCC2CN(Cc2c(-c4ccc(Cl)cc4)nc4ncccn24)CC3)n1 (single isomer, unassigned) [Example 87, [3-{[2-(4-chlorophenyl)imidazo[1,2-a]pyrimidin-3-yl]methyl}-3,9-diazabicyclo[4.2.1]non-9-yl](6-methoxypyridin-2-yl)methanone] | 1.6 | 0.21 |
| Nc1nonc1C(=O)N1CCC2CCC1CN2Cc1c(-c2ccc(Cl)cc2)nc2ncccn12 (stereo not drawn) [Example 24] | 3.1 | 0.024 |
| COc1cccc(C(=O)N2CCC3CCC2CN3Cc2c(-c3ccc(Cl)cc3)nc3ncccn23)n1 (stereo not drawn) [Example 21] | 18 | 0.14 |
| O=C(c1cccc(OC(F)(F)F)n1)N1CCC2CCC1CN2Cc1c(-c2ccc(Cl)cc2)nc2ncccn12 (stereo not drawn) [Example 65] | 1.4 | 0.22 |
| COc1ccc(F)c(C(=O)N2CCC3CCC2CN3Cc2c(-c3ccc(Cl)cc3)nc3ncccn23)n1 (stereo not drawn) [Example 33] | 2.6 | 0.11 |
